Measurements reported in patent publication US20250017940A1, “SELECTIVE PEPTIDOMIMETIC MODULATORS OF CAV2.2 (N-TYPE) VOLTAGE-GATED CALCIUM CHANNELS AND USES THEREOF” (New York University, priority 2023, published 2025).

Legend:
[1] = Preliminary tests of analgesic properties
[2] = tested on: total Ca2+ currents; test: Whole-cell patch-clamp, total Ca2+ currents in small-to-medium DRG neurons; type: cell-based, rat; conditions: 20 μM overnight; normalized to 0.1% DMSO control (1.00±0.06)
Method: Recordings were obtained from acutely dissociated DRG neurons as described earlier (Bellampalli et al., 2019). Patch-clamp recordings were performed at room temperature (22-24° C.). Currents were recorded using an EPC 10 Amplifier-HEKA (HEKA Elektronik, Ludwigshafen, Germany) linked to a computer with Patchmaster software. DRG neurons were incubated overnight (˜16-24 hours) with 20 μM of CBD3063.
For total calcium current (ICa^2+) recordings, the external solution consisted of the following (in mM): 110 N-methyl-D-glucamine, 10 BaCl2, 30 TEA-Cl, 10 HEPES, 10 glucose, and 0.001 TTX (pH 7.29 adjusted with TEA-OH, and mOsm/L=310). Patch pipettes were filled with an internal solution containing (in mM): 150 CsCl2, 10 HEPES, 5 Mg-ATP, and 5 BAPTA, (pH 7.2 adjusted with CsOH, and mOsm/L-305). Peak Ca^2+ current was acquired by applying 200-millisecond voltage steps from −70 to +60 mV in 10-mV increments from a holding potential of −90 mV to obtain the current-voltage (I-V) relation. To measure the different subtypes of Ca^2+ channels, DRGs were treated with a Cav inhibitor cocktail omitting the inhibitor specific to the subtype being tested (e.g., to measure Cav2.2 currents, ω-conotoxin GVIA is omitted): Nifedipine (10 μM, L-type), ω-Conotoxin-GVIA (500 nM, […]) (Feng, et al., 2001), SNX482 (200 nM, R-type) (Newcomb et al., 1998), ω-agatoxin (200 nM, P/Q-type) (Mintz et al., 1992), TTA-P2 (1 μM, T-type) (Choe et al., 2011).
Normalization of currents to each cell's capacitance (pF) was performed to allow for collection of current density data. For I-V curves, functions were fitted to data using a non-linear least squares analysis. I-V curves were fitted using double Boltzmann functions:
where x is the pre-pulse potential, V1/2 is the mid-point potential, and k is the corresponding slope factor for single Boltzmann functions. Double Boltzmann fits were used to describe the shape of the curve, not to imply the existence of separate channel populations. Numbers 1 and 2 simply indicate first and second mid-points; a along with g are fitting parameters.
Activation curves were obtained from the I-V curves by dividing the peak current at each depolarizing step by the driving force according to the equation: G=I/(Vmem-Erev), where I is the peak current, Vmem is the membrane potential and Erev is the reversal potential. The conductance (G) was normalized against the maximum conductance (Gmax). For total and the different subtypes of Ca^2+ currents, steady-state inactivation (SSI) curves were obtained by applying an H-infinity protocol that consisted of 1.5-seconds conditioning pre-pulses from −100 to +30 mV in 10-mV increments followed by a 20-millisecond test pulse to +10 mV. For Na^+ currents, SSI curves were obtained by applying an H-infinity protocol that consisted of 1-second conditioning pre-pulses from −120 to +10 mV in 10-mV increments followed by a 200-millisecond test pulse to +10 mV. Inactivation curves were obtained by dividing the peak current recorded at the test pulse by the maximum current (Imax). Activation and SSI curves were fitted with the Boltzmann equation.

For `N=C(NCCCN1CCc2ccccc2C1)NCc1ccccc1` [CBD3065, N′-benzyl-N-[3-(3,4-dihydro-1H-isoquinolin-2-yl)propyl]guanidine], the analgesic properties [1] was “did not exhibit analgesic properties” and the “normalized peak total ICa2+ density” value [2] was 0.52±0.07 ratio to DMSO control.
With `COc1ccccc1CNC(=N)NCCCN1Cc2ccccc2C1` [CBD3074, N-[3-(1,3-dihydroisoindol-2-yl)propyl]-N′-[(2-methoxyphenyl)methyl]guanidine] the “normalized peak total ICa2+ density” value [2] was 0.58±0.06 ratio to DMSO control.
